Results published in ChEMBL document CHEMBL4811278, “Discovery of novel modulators for the PPARα (peroxisome proliferator activated receptor α): Potential therapies for nonalcoholic fatty liver disease” (Bioorg Med Chem, 2021).
Calls of active or inactive are those of the source. No cut-off for these calls is given here.

Assays:
[1] = tested on: Mus musculus; assay: Hypolipidemic activity in high fat diet-induced nonalcoholic steatohepatitis C57BL/6J mouse model assessed as reduction in hepatic […] content at 3 mg/kg, po administered once daily via gavage for 7 days; format: functional, organism-based; conditions: time 7.0 day
[2] = target: T1, Peroxisome proliferator-activated receptor alpha (Mus musculus) (UniProt P23204); assay: In vivo agonist activity at PPARalpha in high fat diet-induced nonalcoholic steatohepatitis C57BL/6J mouse model assessed as increase in ACOX1 mRNA expression in liver administered at 3 mg/kg, po administered once daily for 7 days by quantitative real time PCR analysis; format: functional, organism-based; conditions: time 7.0 day
T1 sequence (whole entry): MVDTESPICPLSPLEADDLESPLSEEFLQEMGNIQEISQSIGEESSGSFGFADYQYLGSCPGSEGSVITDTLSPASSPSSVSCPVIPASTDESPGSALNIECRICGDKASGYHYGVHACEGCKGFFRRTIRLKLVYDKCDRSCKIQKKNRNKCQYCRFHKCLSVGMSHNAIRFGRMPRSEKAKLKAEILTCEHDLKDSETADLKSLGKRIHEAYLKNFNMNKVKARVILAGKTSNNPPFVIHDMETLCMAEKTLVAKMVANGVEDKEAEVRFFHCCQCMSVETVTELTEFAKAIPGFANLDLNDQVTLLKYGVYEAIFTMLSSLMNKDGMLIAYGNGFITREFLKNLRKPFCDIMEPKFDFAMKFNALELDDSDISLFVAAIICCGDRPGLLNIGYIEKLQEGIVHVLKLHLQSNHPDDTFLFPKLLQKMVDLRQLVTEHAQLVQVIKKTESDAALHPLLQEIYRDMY

[3] = tested on: Mus musculus; assay: Hypolipidemic activity in high fat diet-induced nonalcoholic steatohepatitis C57BL/6J mouse model assessed as reduction in plasma triglyceride level at 3 mg/kg, po administered once daily via gavage for 7 days; format: functional; conditions: 168 h, time 7 day
[4] = target: T1, Peroxisome proliferator-activated receptor alpha (Mus musculus); assay: In vivo agonist activity at PPARalpha in high fat diet-induced nonalcoholic steatohepatitis C57BL/6J mouse model assessed as increase in mCPT1A gene expression in liver at 3 mg/kg, po administered once daily for 7 days and measured at >3 days by quantitative real time PCR analysis; format: functional, organism-based; conditions: time day >3
[5] = target: T2, Peroxisome proliferator-activated receptor gamma (Homo sapiens, UniProt P37231); assay: Agonist activity at Gal4-fused human PPARgamma expressed in monkey CV1 cells assessed as receptor transactivation incubated for 45 hrs by luciferase reporter gene assay; format: cell-based, CV-1
T2 sequence (P37231 whole entry): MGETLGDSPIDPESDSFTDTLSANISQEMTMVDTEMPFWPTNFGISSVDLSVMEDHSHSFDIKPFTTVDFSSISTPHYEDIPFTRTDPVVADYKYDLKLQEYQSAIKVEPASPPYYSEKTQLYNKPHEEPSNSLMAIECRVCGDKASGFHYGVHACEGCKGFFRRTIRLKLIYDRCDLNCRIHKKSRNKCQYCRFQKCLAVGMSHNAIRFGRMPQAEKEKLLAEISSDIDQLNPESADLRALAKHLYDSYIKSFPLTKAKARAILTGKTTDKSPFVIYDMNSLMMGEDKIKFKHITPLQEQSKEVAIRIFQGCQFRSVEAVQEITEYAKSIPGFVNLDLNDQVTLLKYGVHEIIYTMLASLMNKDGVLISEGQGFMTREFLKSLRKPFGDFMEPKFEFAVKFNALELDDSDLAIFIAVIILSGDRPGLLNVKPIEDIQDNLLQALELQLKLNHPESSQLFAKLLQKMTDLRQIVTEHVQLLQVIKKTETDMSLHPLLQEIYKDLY

[6] = target: T1, Peroxisome proliferator-activated receptor alpha (Mus musculus); assay: In vivo agonist activity at PPARalpha in high fat diet-induced nonalcoholic steatohepatitis C57BL/6J mouse model assessed as increase in LPL mRNA expression in liver administered at 3 mg/kg, po administered once daily for 7 days by quantitative real time PCR analysis; format: functional, organism-based; conditions: time 7.0 day
[7] = tested on: Mus musculus; assay: Upregulation of PPARalpha expression in liver of high fat diet-induced nonalcoholic steatohepatitis C57BL/6J mouse model at 3 mg/kg, po and measured after 24 hrs by quantitative real time PCR analysis; format: functional, organism-based
[8] = target: T1, Peroxisome proliferator-activated receptor alpha (Mus musculus); assay: In vivo agonist activity at PPARalpha in high fat diet-induced nonalcoholic steatohepatitis C57BL/6J mouse model assessed as increase in Cyp4a3 mRNA expression in liver administered at 3 mg/kg, po administered once daily for 7 days by quantitative real time PCR analysis; format: functional, organism-based; conditions: time 7.0 day
[9] = Toxicity in C57BL/6J mouse assessed as reduction in body weight measured after 72 hrs; conditions: in vivo
[10] = target: T1, Peroxisome proliferator-activated receptor alpha (Mus musculus); assay: In vivo agonist activity at PPARalpha in high fat diet-induced nonalcoholic steatohepatitis C57BL/6J mouse model assessed as increase in ACOX1 mRNA expression in liver administered at 3 mg/kg, po and measured after 24 hrs by quantitative real time PCR analysis; format: functional, organism-based
[11] = tested on: Mus musculus; assay: Hypolipidemic activity in high fat diet-induced nonalcoholic steatohepatitis C57BL/6J mouse model assessed as reduction in plasma triglyceride level at 3 mg/kg, po administered via gavage and measured after 24 hrs; format: functional
[12] = target: T1, Peroxisome proliferator-activated receptor alpha (Mus musculus); assay: In vivo agonist activity at PPARalpha in high fat diet-induced nonalcoholic steatohepatitis C57BL/6J mouse model assessed as increase in LPL mRNA expression in liver administered at 3 mg/kg, po and measured after 24 hrs by quantitative real time PCR analysis; format: functional, organism-based
[13] = target: T1, Peroxisome proliferator-activated receptor alpha (Mus musculus); assay: In vivo agonist activity at PPARalpha in high fat diet-induced nonalcoholic steatohepatitis C57BL/6J mouse model assessed as transrepression of ApoC3 mRNA expression in liver administered at 3 mg/kg, po administered once daily for 7 days by quantitative real time PCR analysis; format: functional, organism-based; conditions: time 7.0 day
[14] = target: T3, Peroxisome proliferator-activated receptor delta (Homo sapiens, UniProt Q03181); assay: Agonist activity at Gal4-fused human PPARdelta expressed in monkey CV1 cells assessed as receptor transactivation incubated for 45 hrs by luciferase reporter gene assay; format: cell-based, CV-1
T3 sequence (Q03181 whole entry): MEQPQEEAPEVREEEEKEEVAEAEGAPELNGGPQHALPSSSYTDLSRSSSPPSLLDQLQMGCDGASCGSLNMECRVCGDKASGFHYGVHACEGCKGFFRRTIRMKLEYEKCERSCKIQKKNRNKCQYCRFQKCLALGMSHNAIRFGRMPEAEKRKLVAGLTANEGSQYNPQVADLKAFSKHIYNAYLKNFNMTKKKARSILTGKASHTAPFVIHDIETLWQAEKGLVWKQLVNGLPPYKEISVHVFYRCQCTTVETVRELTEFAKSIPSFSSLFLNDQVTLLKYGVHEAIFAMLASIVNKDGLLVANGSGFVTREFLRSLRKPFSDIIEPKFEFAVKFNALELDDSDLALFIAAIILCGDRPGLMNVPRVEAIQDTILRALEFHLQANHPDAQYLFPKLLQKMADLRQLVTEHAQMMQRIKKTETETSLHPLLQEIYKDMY

[15] = target: T1, Peroxisome proliferator-activated receptor alpha (Mus musculus); assay: In vivo agonist activity at PPARalpha in high fat diet-induced nonalcoholic steatohepatitis C57BL/6J mouse model assessed as increase in mACADM gene expression in liver at 3 mg/kg, po administered once daily for 7 days by quantitative real time PCR analysis; format: functional, organism-based; conditions: time 7.0 day
[16] = Toxicity in high fat diet-induced nonalcoholic steatohepatitis C57BL/6J mouse model assessed as increase in plasma glucose level at 3 mg/kg, po administered once daily for 7 days and measured after 4 days; format: organism-based; conditions: in vivo, 96 h, time 4 day

**Q.** What does the source list for `COc1ccc(Cn2c(CCCc3ccc(OC(C)(C)C(=O)O)cc3)nn(Cc3ccc(C)cc3)c2=O)cc1`?
**A.** Activity [1]: Active; Activity [2]: Active; inhibition in vivo at 3 mg/kg [3]: ≥ 50%; Activity [4]: Active; EC50 [5]: > 10 µM; Activity [6]: Active; Activity [7]: Active; Activity [8]: Active; Activity [9]: Non-Toxic; Activity [10]: Active; inhibition in vivo at 3 mg/kg [11]: ≥ 50%; Activity [12]: Active; Activity [13]: Active; EC50 [14]: > 10 µM; Activity [15]: Active; Activity [16]: Non-Toxic
